Measurements: US20130252930A1 (BIOMARIN PHARMACEUTICAL INC., priority 2010, published 2013)

Key:
[1] = Rat liver microsome stability assay (Biological Example 8a); conditions: liver microsomes, pH 7.4
[2] = biological target: T1, CYP17 (human testicular microsome) (Homo sapiens, UniProt P05093); test: CYP17 enzymatic assay (% inhibition at 10 nM), version 1 (Biological Example 5); type: biochemical; conditions: 10 nM compound, DHEA by ELISA, read-out: Biological Example No. 5: CYP17 percent inhibition at 10 nM (version 1)
T1 construct: using microsomal fraction from human testis (Celsis Cat #S00110) as the enzyme source; tissue Celsis S00110; host or cells: human testis microsomal fraction
T1 sequence (P05093 1-508): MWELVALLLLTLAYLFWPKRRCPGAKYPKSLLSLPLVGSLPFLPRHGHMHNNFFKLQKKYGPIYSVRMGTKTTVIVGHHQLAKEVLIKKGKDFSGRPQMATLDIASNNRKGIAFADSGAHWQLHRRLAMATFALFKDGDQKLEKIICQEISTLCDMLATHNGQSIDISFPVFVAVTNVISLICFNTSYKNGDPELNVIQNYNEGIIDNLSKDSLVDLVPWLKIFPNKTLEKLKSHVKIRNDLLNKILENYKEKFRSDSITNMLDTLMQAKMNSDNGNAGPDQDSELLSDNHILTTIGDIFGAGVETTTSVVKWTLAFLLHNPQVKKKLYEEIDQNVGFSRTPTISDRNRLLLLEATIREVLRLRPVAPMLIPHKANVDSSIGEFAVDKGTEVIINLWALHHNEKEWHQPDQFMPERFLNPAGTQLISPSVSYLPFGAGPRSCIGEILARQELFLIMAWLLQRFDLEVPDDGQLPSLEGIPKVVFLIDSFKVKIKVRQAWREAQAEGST

[3] = tested on: rat Cyp11B enzyme (rat adrenal mitochondria); test: CYP11B enzymatic assay (% inhibition at 100 nM) (Biological Example 9); type: biochemical; conditions: for Biological Example No. 9: CYP11B percent inhibition at 100 nM: 100 nM compound, cortisol by ELISA
Outline: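 Sprague Dawley rat adrenal mitochondria were incubated with compound at 100 nM, 0.5 mM NADPH and 0.1 μM 11-deoxycortisol (pH 7.4 Tris buffer) for 60 min at 37 °C. Cortisol was measured by ELISA and corrected by subtracting the no-NADPH background. % inhibition is relative to the no-compound reaction.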

[4] = Human liver microsome stability assay (Biological Example 8b); conditions: liver microsomes, pH 7.4
Description: The reaction was started with addition of excess NADPH (5 mg/mL, 15 μL in 0.1 M potassium phosphate buffer, 1.0 mM EDTA, pH 7.4), the total volume is 45 μL (compound final concentration was 1 μM). […] 50 μL of the supernatant was transferred from each well into a 96-well sample plate containing 50 μL of ultra-pure water (Millipore) for LC-MS/MS analysis.

[5] = biological target: T1, CYP17 (human testicular microsome); test: CYP17 enzymatic assay (% inhibition at 1 nM) (Biological Example 12); type: biochemical; conditions: compound at 1 nM, read-out: CYP17 enzymatic assay % inhibition at 1 nM (Biological Example No. 12)

| Compound | half-life at 1 μM [1] [min] | inhibition at 0.01 µM [2] [%] | Biological Example No. 9: CYP11B percent inhibition at 100 nM [3] | half-life at 1 μM [4] [min] | inhibition at 0.001 µM [5] [%] | CYP11B enzymatic assay % inhibition at 100 nM (Biological Example No. 9) ([3]; compound at 100 nM) |
| --- | --- | --- | --- | --- | --- | --- |
| C[C@]12CC[C@H]3[C@@H](CC=C4C[C@@H](O)CC[C@@]43C)C1=CC=C2c1cccnc1 [Compound 79, (3S,10R,13S)-10,13-dimethyl-17-(pyridin-3-yl)-2,3,4,7,8,9,10,11,12,13-decahydro-1H-cyclopenta[a]phenanthren-3-ol] | 10 to 60 | 50 to 80 | T (T means the compound had a percent inhibition of less than 32% when tested at 100 nM) | 1 to 50 |  |  |
| C[C@]12CC(O)C[C@@H]1CC[C@@H]1[C@@H]2CC[C@]2(C)C(n3ccnc3)=CC[C@@H]12 (stereo partly drawn) [Compound 109, (3aS,5aS)-6-(1H-imidazol-1-yl)-3a,5a-dimethyl-1,2,3,3a,3b,4,5,5a,8,8a,8b,9,10,10a-tetradecahydrodicyclopenta[a,f]naphthalen-2-ol] | 10 to 60 | > 80 | U (U means the compound had a percent inhibition of greater than or equal to 32%) |  |  |  |
| CC(=O)NC1CC[C@@]2(C)C(=CCC3C2CC[C@]2(C)C(n4ccnc4)=CCC32)C1 (stereo partly drawn) [Compound 237, N-((10R,13S)-17-(1H-imidazol-1-yl)-10,13-dimethyl-2,3,4,7,8,9,10,11,12,13,14,15-dodecahydro-1H-cyclopenta[a]phenanthren-3-yl)acetamide] |  |  |  | > 50 | > 50 | U (U means the compound had a percent inhibition of greater than or equal to 32%) |
